Assay results reported in patent publication US10106524B2, “2,3,4,5-tetrahydropyridin-6-amine and 3,4-dihydro-2H-pyrrol-5-amine compound inhibitors of beta-secretase” (Janssen Pharmaceutica NV, priority 2015, dated 2018).

Experiments:
[1] = biological target: T1, recombinant BACE1 protein (Homo sapiens, UniProt P56817); assay: BACE1 biochemical FRET based assay - Method 2; conditions: BACE1 0.04 μg/ml, 450 minutes, 20 μM substrate, pH 5.0; read-out: Biochemical FRET based assay- Method 2 pIC50 (converted)
T1 construct: recombinant BACE1 protein in a final concentration of 1 μg/ml
Description: (§1) BACE1 Biochemical FRET Based Assay
(§2) This assay is a Fluorescence Resonance Energy Transfer Assay (FRET) based assay. The substrate for this assay is an APP derived 13 amino acids peptide that contains the ‘Swedish’ Lys-Met/Asn-Leu mutation of the amyloid precursor protein (APP) beta-secretase cleavage site. This substrate also contains two fluorophores: (7-methoxycoumarin-4-yl) acetic acid (Mca) is a fluorescent donor with excitation wavelength at 320 nm and emission at 405 nm and 2,4-Dinitrophenyl (Dnp) is a proprietary quencher acceptor. […] Upon cleavage by BACE1, the fluorophore Mca is separated from the quenching group Dnp, restoring the full fluorescence yield of the donor. The increase in fluorescence is linearly related to the rate of proteolysis.
Briefly in a 384-well format recombinant BACE1 protein in a final concentration of 0.04 μg/ml is incubated for 450 minutes at room temperature with 20 μM substrate in incubation buffer (50 mM Citrate buffer pH 5.0, 0.05% PEG) in the presence of compound or DMSO. Next the amount of proteolysis is directly measured by fluorescence measurement (excitation at 320 nm and emission at 405 nm) at different incubation times (0, 30, 60, 90, 120 and 450 min). For every experiment a time curve (every 30 min between 0 min and 120 min) is used to determine the time where we find the lowest basal signal of the high control. The signal at this time (Tx) is used to subtract from the signal at 450 min. Results are expressed in RFU, as difference between T450 and Tx.
(§3) A best-fit curve is fitted by a minimum sum of squares method to the plot of % Controlmin versus compound concentration. From this an IC50 value (inhibitory concentration causing 50% inhibition of activity) can be obtained.

[2] = test system: Abeta 1-42 produced and secreted by SKNBE2 cells expressing hAPP695; assay: Cellular αLisa assay in SKNBE2 cells - Abeta 42; format: cell-based, human; conditions: Homo sapiens, incubated for 18 hours, read-out: Cellular αLisa assay in SKNBE2 cells Abeta 42 pIC50 (converted)
Experimental: (§4) Cellular αLisa Assay in SKNBE2 Cells
(§5) In two αLisa assays the levels of Abeta total and Abeta 1-42 produced and secreted into the medium of human neuroblastoma SKNBE2 cells are quantified. The assay is based on the human neuroblastoma SKNBE2 expressing the wild type Amyloid Precursor Protein (hAPP695). The compounds are diluted and added to these cells, incubated for 18 hours and then measurements of Abeta 1-42 and Abeta total are taken. Abeta total and Abeta 1-42 are measured by sandwich αLisa. αLisa is a sandwich assay using biotinylated antibody AbN/25 attached to streptavidin coated beads and antibody Ab4G8 or cAb42/26 conjugated acceptor beads for the detection of Abeta total and Abeta 1-42 respectively. In the presence of Abeta total or Abeta 1-42, the beads come into close proximity. The excitation of the donor beads provokes the release of singlet oxygen molecules that trigger a cascade of energy transfer in the acceptor beads, resulting in light emission. Light emission is measured after 1 hour incubation (excitation at […] and emission at 615 nm).
as §3

[3] = test system: Abeta total produced and secreted by SKNBE2 cells expressing hAPP695; assay: Cellular αLisa assay in SKNBE2 cells - Abeta total; format: cell-based; conditions: Homo sapiens, incubated for 18 hours, read-out: Cellular αLisa assay in SKNBE2 cells Abeta total pIC50 (converted)
Experimental: as §4, §5, §3

[4] = biological target: T2, recombinant BACE2 protein (Homo sapiens, UniProt Q9Y5Z0); assay: BACE2 biochemical FRET based assay; conditions: BACE2 0.4 μg/nil, 450 minutes, 10 μM substrate, pH 5.0; read-out: Biochemical FRET based assay pIC50 (BACE2) (converted)
T2 construct: recombinant BACE2 protein in a final concentration of 0.4 μg/nil
T2 sequence (Q9Y5Z0 63-518): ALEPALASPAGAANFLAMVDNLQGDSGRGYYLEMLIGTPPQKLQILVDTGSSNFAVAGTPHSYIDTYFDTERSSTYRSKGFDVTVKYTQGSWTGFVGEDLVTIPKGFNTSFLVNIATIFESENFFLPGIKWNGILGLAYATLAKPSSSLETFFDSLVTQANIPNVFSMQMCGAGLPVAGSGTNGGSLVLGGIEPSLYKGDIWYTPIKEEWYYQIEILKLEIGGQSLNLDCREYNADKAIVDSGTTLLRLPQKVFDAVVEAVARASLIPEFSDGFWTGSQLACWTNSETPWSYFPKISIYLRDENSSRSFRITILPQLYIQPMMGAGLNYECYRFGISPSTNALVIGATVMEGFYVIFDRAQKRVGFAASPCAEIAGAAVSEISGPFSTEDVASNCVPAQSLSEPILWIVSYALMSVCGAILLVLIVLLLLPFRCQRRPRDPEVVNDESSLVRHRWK
Description: BACE2 Biochemical FRET Based Assay
as §2, with “assay” for “assay is an APP derived 13 amino acids peptide that”, “the beta-secretase,” for “BACE1,”
Briefly in a 384-well format recombinant BACE2 protein in a final concentration of […] is incubated for 450 minutes at room temperature with 10 μM substrate in incubation buffer (50 mM Citrate buffer pH 5.0, 0.05% PEG, no DMSO) in the absence or presence of compound. Next the amount of proteolysis is directly measured by fluorescence measurement at T=0 and T=450 (excitation at 320 nm and emission at 405 nm). Results are expressed in RFU (Relative Fluorescence Units), as difference between T450 and T0.
as §3

[5] = biological target: T1, recombinant BACE1 protein; assay: BACE1 biochemical FRET based assay - Method 1; conditions: BACE1 1 μg/ml, 120 minutes, 10 μm substrate, pH 5.0; read-out: Biochemical FRET based assay - Method 1 pIC50 (converted)
Description: as §1, §2
Briefly in a 384-well format recombinant BACE1 protein in a final concentration of 1 μg/ml is incubated for 120 minutes at room temperature with 10 μm substrate in incubation buffer (40 mM Citrate buffer pH 5.0, 0.04% PEG, 4% DMSO) in the absence or presence of compound. Next the amount of proteolysis is directly measured by fluorescence measurement at T=0 and T=120 (excitation at 320 nm and emission at 405 nm). Results are expressed in RFU (Relative Fluorescence Units), as difference between T120 and T0.
as §3

T1 sequence (P56817 46-501): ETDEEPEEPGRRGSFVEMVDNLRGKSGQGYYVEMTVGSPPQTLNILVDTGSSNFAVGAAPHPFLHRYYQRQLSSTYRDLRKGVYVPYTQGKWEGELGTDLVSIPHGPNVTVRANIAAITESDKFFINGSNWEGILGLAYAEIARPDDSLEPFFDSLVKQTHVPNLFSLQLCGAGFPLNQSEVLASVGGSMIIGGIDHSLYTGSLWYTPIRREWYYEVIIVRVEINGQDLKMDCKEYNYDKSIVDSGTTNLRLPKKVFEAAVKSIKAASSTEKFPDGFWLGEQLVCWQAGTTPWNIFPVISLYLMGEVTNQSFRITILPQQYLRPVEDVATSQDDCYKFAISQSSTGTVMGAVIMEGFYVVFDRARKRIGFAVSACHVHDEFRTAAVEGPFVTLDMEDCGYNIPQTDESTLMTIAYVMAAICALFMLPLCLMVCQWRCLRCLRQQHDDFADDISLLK

| IC50 [1] | IC50 [2] | IC50 [3] | IC50 [4] | IC50 [5] | SMILES |
| --- | --- | --- | --- | --- | --- |
| > 10000 nM | 8910 nM | 8320 nM | > 10000 nM |  | CC1(c2cc(-c3cncnc3)ccc2F)N=C(N)CC1C(F)(F)F (centres unmarked) [Compound 14] |
| > 10000 nM | 4270 nM | 3980 nM | > 10000 nM | 18200 nM | C[C@@]1(c2cccc(-c3cncnc3)c2)C[C@H](C(F)(F)F)CC(N)=N1 [Compound 2, (4S,6S)-6-methyl-6-(3-pyrimidin-5-ylphenyl)-4-(trifluoromethyl)-3,4,5,6-tetrahydropyridin-2-amine] |
| 2.63 nM | 2.34 nM | 2 nM | 4.07 nM | 30.9 nM | C[C@@]1(c2cc(NC(=O)c3ccc(Cl)cn3)ccc2F)C[C@@H](C(F)(F)F)CC(N)=N1 [Compound 11] |
| 1620 nM | 2000 nM | 1860 nM | 1150 nM | 4900 nM | C[C@@]1(c2cccc(NC(=O)c3ncc(Cl)cc3F)c2)C[C@H](C(F)(F)F)CC(N)=N1 [Compound 6, N-[3-[(2S,4S)-6-amino-2-methyl-4-(trifluoromethyl)-4,5-dihydro-3H-pyridin-2-yl]phenyl]-5-chloro-3-fluoro-pyridine-2-carboxamide] |
| 1020 nM | 295 nM | 263 nM |  | 1480 nM | C[C@@]1(c2cccc(-c3cncnc3)c2)C[C@@H](C(F)(F)F)CC(N)=N1 [Compound 1, (4R,6S)-6-methyl-6-(3-pyrimidin-5-ylphenyl)-4-(trifluoromethyl)-3,4,5,6-tetrahydropyridin-2-amine] |
| 20.4 nM | 24 nM | 24 nM | 132 nM | 32.4 nM | C[C@@]1(c2cccc(NC(=O)c3ccc(C#N)cn3)c2)C[C@@H](C(F)(F)F)CC(N)=N1 [Compound 7, N-[3-[(2S,4R)-6-amino-2-methyl-4-(trifluoromethyl)-4,5-dihydro-3H-pyridin-2-yl]phenyl]-5-cyano-pyridine-2-carboxamide] |

Second part, the compound before the results:

| SMILES | IC50 [1] | IC50 [2] | IC50 [3] | IC50 [4] | IC50 [5] |
| --- | --- | --- | --- | --- | --- |
| CC1(c2cc(NC(=O)c3ccc(C#N)cn3)ccc2F)N=C(N)CC1C(F)(F)F (racemic) [Compound 18, (+)-N-[3-[(2S*,3R*)-5-amino-2-methyl-3-(trifluoromethyl)-3,4-dihydropyrrol-2-yl]-4-fluoro-phenyl]-5-cyano-pyridine-2-carboxamide] | 380 nM | 67.6 nM | 64.6 nM | 2190 nM |  |
| C[C@@]1(c2cc(NC(=O)c3ccc(Cl)cn3)ccc2F)N=C(N)C[C@@H]1C(F)(F)F [Compound 20, N-[3-[(2R,3S)-5-amino-2-methyl-3-(trifluoromethyl)-3,4-dihydropyrrol-2-yl]-4-fluoro-phenyl]-5-chloro-pyridine-2-carboxamide] | > 10000 nM | 8910 nM | 8320 nM | > 10000 nM |  |
| C[C@]1(c2cc(NC(=O)c3ccc(Cl)cn3)ccc2F)N=C(N)C[C@H]1C(F)(F)F [Compound 19, N-[3-[(2S,3R)-5-amino-2-methyl-3-(trifluoromethyl)-3,4-dihydropyrrol-2-yl]-4-fluoro-phenyl]-5-chloro-pyridine-2-carboxamide] | 302 nM | 61.7 nM | 81.3 nM | 692 nM |  |
| COc1cnc(C(=O)Nc2ccc(F)c(C3(C)N=C(N)CC3C(F)(F)F)c2)cn1 (racemic) [Compound 17, (±)-N-[3-[(2S*,3R*)-5-amino-2-methyl-3-(trifluoromethyl)-3,4-dihydropyrrol-2-yl]-4-fluoro-phenyl]-5-methoxy-pyrazine-2-carboxamide] | 871 nM | 170 nM | 178 nM | > 10000 nM |  |
| C[C@@]1(c2cc(NC(=O)c3ccc(Br)cn3)ccc2F)N=C(N)C[C@@H]1C(F)(F)F [Compound 33, N-[3-[(2R,3S)-5-amino-2-methyl-3-(trifluoromethyl)-3,4-dihydropyrrol-2-yl]-4-fluoro-phenyl]-5-bromo-pyridine-2-carboxamide] | 229 nM | 36.3 nM |  | 513 nM |  |
